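Test compounds were applied to cells in 96-well plates for 48 hours at 5 doses. GI50 marks 50% less growth. TGI denotes the concentration required for complete inhibition of growth.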
Assays:
Experiment in all cases: NCI anticancer screen, dose series, 48 h; in the data active = GI50 below about 0.43 µM; inactive = the rest
[1] = tested on: HL-60(TB) leukemia
[2] = tested on: SW-620 colon
[3] = tested on: UO-31 renal
[4] = tested on: MOLT-4 leukemia
[5] = tested on: MDA-MB-435
[6] = tested on: A498 renal
[7] = tested on: NCI-H23 lung
[8] = tested on: MALME-3M melanoma
[9] = tested on: UACC-62 melanoma
[10] = tested on: CAKI-1 renal
[11] = tested on: K-562 leukemia
[12] = tested on: SNB-75 CNS
[13] = tested on: TK-10 renal
[14] = tested on: NCI-H522 lung
[15] = tested on: SK-MEL-5 melanoma
[16] = tested on: UACC-257 melanoma
[17] = tested on: HOP-62 NSCLC
[18] = tested on: SF-539 CNS
[19] = tested on: HOP-92 NSCLC
[20] = tested on: RPMI-8226 leukemia
[21] = tested on: 786-0 renal
[22] = tested on: HS 578T breast
[23] = tested on: SK-OV-3 ovarian
[24] = tested on: NCI/ADR-RES ovarian
[25] = tested on: MDA-MB-231 breast
[26] = tested on: A549 NSCLC
[27] = tested on: ACHN renal
[28] = tested on: HCT-116 colon
[29] = tested on: SNB-19 CNS
[30] = tested on: OVCAR-3 ovarian
[31] = tested on: HCC-2998 colon
[32] = tested on: SF-295 CNS
[33] = tested on: IGROV1 ovarian
[34] = tested on: T-47D breast
[35] = tested on: OVCAR-8 ovarian
[36] = tested on: DU-145 prostate
[37] = tested on: RXF 393 renal
[38] = tested on: CCRF-CEM leukemia
[39] = tested on: NCI-H460 lung
[40] = tested on: U251 CNS
[41] = tested on: MDA-MB-468 breast
[42] = tested on: HCT-15 colon
[43] = tested on: BT-549 breast
[44] = tested on: OVCAR-5 ovarian
[45] = tested on: OVCAR-4 ovarian
[46] = tested on: LOX IMVI melanoma
[47] = tested on: MCF7 breast
[48] = tested on: NCI-H226 lung
[49] = tested on: SN12C renal
[50] = tested on: HT29 colon
[51] = tested on: M14 melanoma
[52] = tested on: SR leukemia
[53] = tested on: SK-MEL-2 melanoma
[54] = tested on: EKVX NSCLC
[55] = tested on: PC-3 prostate
[56] = tested on: KM12 colon
[57] = tested on: SK-MEL-28 melanoma
[58] = tested on: COLO 205 colon
[59] = tested on: SF-268 CNS

O=C(Nc1ccc(OCC(=O)c2ccc(Cl)cc2)cc1)Nc1ccc(Cl)c(C(F)(F)F)c1
75.8 µM: TGI [17]
26.1 µM: TGI [21]
25.8 µM: TGI [40]
24.8 µM: TGI [18]
70.3 µM: TGI [43]
42.1 µM: TGI [19]
inactive: GI50 [1] 4.43 µM | GI50 [2] 4.67 µM | GI50 [3] 3.44 µM | GI50 [4] 3.6 µM | GI50 [5] 6.7 µM | GI50 [6] 3 µM | GI50 [7] 5.83 µM | GI50 [8] 3.61 µM | GI50 [9] 3.28 µM | GI50 [10] 4.1 µM | GI50 [11] 10.4 µM | GI50 [12] 2.53 µM | GI50 [13] 15.9 µM | GI50 [14] 3.68 µM | GI50 [15] 6.19 µM | GI50 [16] 3.55 µM | GI50 [17] 10.5 µM | GI50 [18] 7.74 µM | GI50 [19] 4.07 µM | GI50 [20] 3.21 µM | GI50 [21] 5.8 µM | GI50 [22] 4.44 µM | GI50 [23] 14.2 µM | GI50 [24] 4.06 µM | GI50 [25] 5.93 µM | GI50 [26] 3.69 µM | GI50 [27] 3.75 µM | GI50 [28] 4.66 µM | GI50 [29] 4.62 µM | GI50 [30] 4.12 µM | GI50 [31] 3.4 µM | GI50 [32] 3.8 µM | GI50 [33] 5.85 µM | GI50 [34] 3.25 µM | GI50 [35] 7.17 µM | GI50 [36] 7.97 µM | GI50 [37] 3.13 µM | GI50 [38] 3.95 µM | GI50 [39] 3.46 µM | GI50 [40] 5.48 µM | GI50 [41] 2.97 µM | GI50 [42] 3.17 µM | GI50 [43] 11.5 µM | GI50 [44] 7.49 µM | GI50 [45] 5.35 µM | GI50 [46] 4.41 µM | GI50 [47] 5.15 µM | GI50 [48] 3.16 µM | GI50 [49] 6 µM | GI50 [50] 4.75 µM | GI50 [51] 4.4 µM | GI50 [52] 13.7 µM | GI50 [53] 2.92 µM | GI50 [54] 3.53 µM | GI50 [55] 2.9 µM
30 µM: TGI [6]
45.6 µM: TGI [12]
9.28 µM: TGI [37]
32 µM: TGI [25]
46.1 µM: TGI [45]
22.2 µM: TGI [46]
30.1 µM: TGI [29]
> 100 µM: TGI [1] | TGI [2] | TGI [3] | TGI [4] | TGI [5] | TGI [8] | TGI [9] | TGI [10] | TGI [11] | TGI [13] | TGI [14] | TGI [15] | TGI [16] | TGI [20] | TGI [22] | TGI [23] | TGI [24] | TGI [26] | TGI [27] | TGI [28] | TGI [30] | TGI [31] | TGI [33] | TGI [34] | TGI [35] | TGI [36] | TGI [38] | TGI [39] | TGI [41] | TGI [42] | TGI [44] | TGI [47] | TGI [48] | TGI [49] | TGI [50] | TGI [51] | TGI [52] | TGI [53] | TGI [54] | TGI [55]
32.4 µM: TGI [32]
31.1 µM: TGI [7]

CN(C)CCn1c2ccccc2c2nc3cc4ccccc4cc3nc21
15.9 µM: TGI [49]
11.1 µM: TGI [51]
2.12 µM: TGI [19]
18.8 µM: TGI [9]
14.6 µM: TGI [7]
11.9 µM: TGI [15]
14.2 µM: TGI [33]
2.85 µM: TGI [1]
10.2 µM: TGI [37]
21.5 µM: TGI [53]
18.9 µM: TGI [29]
16.5 µM: TGI [21]
13.1 µM: TGI [47]
22.4 µM: TGI [13]
4.52 µM: TGI [26]
2.66 µM: TGI [31]
19.4 µM: TGI [34]
12.4 µM: TGI [4]
12 µM: TGI [32]
21.1 µM: TGI [38]
12.3 µM: TGI [10]
16.2 µM: TGI [54]
16.7 µM: TGI [5]
15.2 µM: TGI [56]
14.1 µM: TGI [28] | TGI [40]
2.47 µM: TGI [42]
16.6 µM: TGI [16]
22.1 µM: TGI [45]
active: GI50 [3] 0.335 µM | GI50 [19] 0.0473 µM
2.42 µM: TGI [46]
6.36 µM: TGI [41]
39 µM: TGI [22]
3.54 µM: TGI [35]
13.2 µM: TGI [36]
6.59 µM: TGI [48]
11.5 µM: TGI [27]
8.72 µM: TGI [8]
16.8 µM: TGI [44]
16.4 µM: TGI [17] | TGI [59]
12.9 µM: TGI [2]
inactive: GI50 [1] 1.07 µM | GI50 [2] 2.08 µM | GI50 [4] 2.76 µM | GI50 [5] 4.19 µM | GI50 [6] 14.7 µM | GI50 [7] 2.86 µM | GI50 [8] 2.41 µM | GI50 [9] 5.13 µM | GI50 [10] 1.28 µM | GI50 [11] 1.79 µM | GI50 [56] 2.8 µM | GI50 [14] 2.5 µM | GI50 [15] 2.88 µM | GI50 [16] 4.37 µM | GI50 [18] 3.01 µM | GI50 [21] 3.95 µM | GI50 [22] 12.6 µM | GI50 [57] 5.72 µM | GI50 [23] 3.98 µM | GI50 [24] 2.62 µM | GI50 [25] 2.51 µM | GI50 [26] 1.02 µM | GI50 [27] 1.59 µM | GI50 [28] 2.08 µM | GI50 [29] 5.8 µM | GI50 [30] 4.53 µM | GI50 [31] 1.29 µM | GI50 [32] 1.8 µM | GI50 [33] 1.63 µM | GI50 [34] 3.52 µM | GI50 [35] 1.47 µM | GI50 [36] 2.65 µM | GI50 [37] 2.23 µM | GI50 [38] 6.37 µM | GI50 [39] 1.17 µM | GI50 [40] 2.93 µM | GI50 [41] 1.26 µM | GI50 [42] 1.06 µM | GI50 [43] 4.92 µM | GI50 [44] 3.73 µM | GI50 [45] 5.95 µM | GI50 [58] 2.12 µM | GI50 [46] 1.16 µM | GI50 [47] 1.29 µM | GI50 [48] 1.89 µM | GI50 [59] 3.8 µM | GI50 [49] 2 µM | GI50 [50] 1.41 µM | GI50 [51] 2.48 µM | GI50 [53] 8.51 µM | GI50 [54] 3.36 µM | GI50 [55] 2.44 µM
11.6 µM: TGI [3]
15.3 µM: TGI [24] | TGI [25]
18.3 µM: TGI [57]
17.2 µM: TGI [23] | TGI [30]
3.8 µM: TGI [50]
32 µM: TGI [6]
14.5 µM: TGI [14] | TGI [39]
12.8 µM: TGI [18]
13.5 µM: TGI [55]
10.4 µM: TGI [58]
13 µM: TGI [20]
5.45 µM: TGI [11]
18.5 µM: TGI [43]

— PubChem BioAssay (NCI)
